The compounds below were run against human Edg-2 receptor (Homo sapiens, UniProt Q92633) (assay: Determination of Edg-2 receptor inhibition by FLIPR measurements (LPA-mediated calcium liberation)). Settings: CHO cells overexpressing human Edg-2 receptor, LPA 100 nM, fluo-4 calcium fluorescence; read-out: Inhibitory concentrations IC50 for inhibition of the Edg-2 receptor.
Assay type: cell-based
Procedure, shortened: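 IC50 was derived from % inhibition of the baseline-corrected peak fluo-4 signal relative to DMSO, measured in triplicate. Compound was added ~5 min before 100 nM LPA (18:1) to human Edg-2–expressing CHO cells in pH 7.5 HBSS buffer with probenecid and HEPES, and fluorescence was monitored ~3 min.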

human Edg-2 receptor, sequence (Q92633 whole entry): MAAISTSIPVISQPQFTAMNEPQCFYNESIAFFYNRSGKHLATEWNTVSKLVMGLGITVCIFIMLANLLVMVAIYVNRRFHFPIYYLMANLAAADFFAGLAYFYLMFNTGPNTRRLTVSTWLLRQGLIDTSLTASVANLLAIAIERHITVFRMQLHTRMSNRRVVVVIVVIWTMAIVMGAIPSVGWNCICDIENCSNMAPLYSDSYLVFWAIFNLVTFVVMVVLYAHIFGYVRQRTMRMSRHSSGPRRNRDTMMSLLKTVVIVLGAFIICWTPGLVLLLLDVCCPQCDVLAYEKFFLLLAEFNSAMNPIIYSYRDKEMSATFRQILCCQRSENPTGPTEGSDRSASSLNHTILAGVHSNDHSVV

| IC50 [nM] | Structure (SMILES) |
| --- | --- |
| < 100 | CC[C@H]1CC[C@](NC(=O)c2ccc(OC)c(OCCc3cccc(OC(F)(F)F)c3)c2)(C(=O)O)CC1 [Example 403, cis-4-Ethyl-1-{4-methoxy-3-[2-(3-trifluoromethoxy-phenyl)-ethoxy]-benzoylamino}-cyclohexanecarboxylic acid] |
| < 100 | COc1ccc(C(=O)N[C@]2(C(=O)O)CC[C@H](C)CC2)cc1OCCc1cc(Cl)ccc1F [Example 404, cis-1-{3-[2-(5-Chloro-2-fluoro-phenyl)-ethoxy]-4-methoxy-benzoylamino}-4-methyl-cyclohexanecarboxylic acid] |
| < 100 | COc1ccc(C(=O)N[C@]2(C(=O)O)CC[C@H](C)CC2)cc1OCCc1cc(OC(F)(F)F)ccc1F [Example 405, cis-1-{3-[2-(2-Fluoro-5-trifluoromethoxy-phenyl)-ethoxy]-4-methoxy-benzoylamino}-4-methyl-cyclohexanecarboxylic acid] |
| 100 to 1000 | COc1ccc(C(=O)N[C@]2(C(=O)O)CC[C@H](C)CC2)cc1OCCc1ccccc1 [Example 406, cis-1-(4-Methoxy-3-phenethyloxy-benzoylamino)-4-methyl-cyclohexanecarboxylic acid] |
| < 100 | CC[C@H]1CC[C@](NC(=O)c2cnc(OC)c(-c3ccc(F)cc3)c2)(C(=O)O)CC1 [Example 407] |
| 100 to 1000 | CC[C@H]1CC[C@@](NC(=O)c2cnc(OC)c(-c3ccc(Cl)c(C(F)(F)F)c3)c2)(C(=O)O)CC1 [Example 408] |
| < 100 | CC[C@H]1CC[C@](NC(=O)c2cnc(OC)c(-c3cccc(F)c3)c2)(C(=O)O)CC1 [Example 409] |
| < 100 | COc1ncc(C(=O)N[C@]2(C(=O)O)CC[C@H](C)CC2)cc1-c1cc(F)cc(F)c1 [Example 410] |
| < 100 | CC[C@H]1CC[C@](NC(=O)c2cnc(OC)c(-c3ccc(OC)c(F)c3)c2)(C(=O)O)CC1 [Example 411] |
| < 100 | CC[C@H]1CC[C@@](NC(=O)c2cnc(OC)c(-c3ccc(OC)c(F)c3)c2)(C(=O)O)CC1 [Example 412] |
| < 100 | CC[C@H]1CC[C@](NC(=O)c2cnc(OCCO)c(-c3cccc(C(F)(F)F)c3)c2)(C(=O)O)CC1 [Example 413, 4-Ethyl-1-{[6-(2-hydroxy-ethoxy)-5-(3-trifluoromethyl-phenyl)-pyridine-3-carbonyl]-amino}-cyclohexanecarboxylic acid] |
| < 100 | CC[C@H]1CC[C@](NC(=O)c2cnc(OCCO)c(-c3ccc(F)c(F)c3)c2)(C(=O)O)CC1 [Example 414] |
| < 100 | CC[C@H]1CC[C@](NC(=O)c2cnc(OCCO)c(-c3cc(F)cc(F)c3)c2)(C(=O)O)CC1 [Example 415] |
| < 100 | CC[C@H]1CC[C@](NC(=O)c2cnc(OCCO)c(-c3cccc(OC(F)(F)F)c3)c2)(C(=O)O)CC1 [Example 416] |
| < 100 | CC[C@H]1CC[C@](NC(=O)c2cnc(OCCO)c(-c3ccc(OC)c(Cl)c3)c2)(C(=O)O)CC1 [Example 417] |
| < 100 | CC[C@H]1CC[C@@](NC(=O)c2ccc(OCCO)c(OCCc3cccc(Cl)c3)c2)(C(=O)O)CC1 [Example 418, trans-1-[3-[2-(3-Chloro-phenyl)-ethoxy]-4-(2-hydroxy-ethoxy)-benzoylamino]-4-ethyl-cyclohexanecarboxylic acid] |
| < 100 | CC[C@H]1CC[C@](NC(=O)c2ccc(OCCO)c(OCCc3cccc(Cl)c3)c2)(C(=O)O)CC1 [Example 419, cis-1-[3-[2-(3-Chloro-phenyl)-ethoxy]-4-(2-hydroxy-ethoxy)-benzoylamino]-4-ethyl-cyclohexanecarboxylic acid] |
| 100 to 1000 | C[C@H]1CC[C@@](NC(=O)c2ccc(OCCO)c(OCCc3ccccc3)c2)(C(=O)O)CC1 [Example 420, trans-1-[4-(2-Hydroxy-ethoxy)-3-phenethyloxy-benzoylamino]-4-methyl-cyclohexanecarboxylic acid] |
| 100 to 1000 | C[C@H]1CC[C@](NC(=O)c2ccc(OCCO)c(OCCc3ccccc3)c2)(C(=O)O)CC1 [Example 421, cis-1-[4-(2-Hydroxy-ethoxy)-3-phenethyloxy-benzoylamino]-4-methyl-cyclohexanecarboxylic acid] |

| IC50 [nM] | Structure (SMILES) |
| --- | --- |
| 100 to 1000 | O=C(NC1(C(=O)O)CCCCCC1)c1ccc(OCCO)c(OCCc2ccccc2)c1 [Example 422, 1-[4-(2-Hydroxy-ethoxy)-3-phenethyloxy-benzoylamino]cycloheptanecarboxylic acid] |
| < 100 | CC[C@H]1CC[C@](NC(=O)c2cnc(OC)c(OCCc3cccc(CCO)c3)c2)(C(=O)O)CC1 [Example 423, cis-4-Ethyl-1-[(5-{2-[3-(2-hydroxy-ethyl)-phenyl]-ethoxy}-6-methoxy-pyridine-3-carbonyl)-amino]-cyclohexanecarboxylic acid] |
| < 100 | CC[C@H]1CC[C@@](NC(=O)c2cnc(OC)c(OCCc3cccc(CCO)c3)c2)(C(=O)O)CC1 [Example 424, trans-4-Ethyl-1-[(5-{2-[3-(2-hydroxy-ethyl)-phenyl]-ethoxy}-6-methoxy-pyridine-3-carbonyl)-amino]-cyclohexanecarboxylic acid] |
| 100 to 1000 | CC[C@H]1CC[C@](NC(=O)c2ccc(OC)c(-c3ccc(OC)c(F)c3)c2)(C(=O)O)CC1 [Example 425, cis-4-Ethyl-1-[(3′-fluoro-6,4′-dimethoxy-biphenyl-3-carbonyl)-amino]-cyclohexanecarboxylic acid] |
| 100 to 1000 | CC[C@H]1CC[C@](NC(=O)c2cnc(O)c(-c3cccc(C(F)(F)F)c3)c2)(C(=O)O)CC1 [Example 426, cis-4-Ethyl-1-{[6-hydroxy-5-(3-trifluoromethyl-phenyl)-pyridine-3-carbonyl]-amino}-cyclohexanecarboxylic acid] |
| 100 to 1000 | CC[C@@H]1C[C@]1(NC(=O)c1ccc(OC)c(-c2cccc(C(F)(F)F)c2)c1)C(=O)O [Example 427, (1R,2R)-2-Ethyl-1-[(6-methoxy-3′-trifluoromethyl-biphenyl-3-carbonyl)-amino]-cyclopropanecarboxylic acid] |
| < 100 | CC[C@H]1CC[C@](NC(=O)c2ccc(C=O)c(-c3cccc(C(F)(F)F)c3)c2)(C(=O)O)CC1 [Example 428, cis-4-Ethyl-1-[(6-formyl-3′-trifluoromethyl-biphenyl-3-carbonyl)-amino]-cyclohexanecarboxylic acid] |
| 100 to 1000 | CC[C@H]1CC[C@@](NC(=O)c2ccc(C=O)c(-c3cccc(C(F)(F)F)c3)c2)(C(=O)O)CC1 [Example 429, trans-4-Ethyl-1-[(6-formyl-3′-trifluoromethyl-biphenyl-3-carbonyl)-amino]-cyclohexanecarboxylic acid] |
| 100 to 1000 | CC[C@H]1CC[C@](NC(=O)c2ccc(CO)c(-c3cccc(C(F)(F)F)c3)c2)(C(=O)O)CC1 [Example 430, cis-4-Ethyl-1-[(6-hydroxymethyl-3′-trifluoromethyl-biphenyl-3-carbonyl)-amino]-cyclohexanecarboxylic acid] |
| 100 to 1000 | CC[C@H]1CC[C@@](NC(=O)c2ccc(CO)c(-c3cccc(C(F)(F)F)c3)c2)(C(=O)O)CC1 [Example 431, trans-4-Ethyl-1-[(6-hydroxymethyl-3′-trifluoromethyl-biphenyl-3-carbonyl)-amino]-cyclohexanecarboxylic acid] |
| < 100 | CC[C@H]1CC[C@](NC(=O)c2ccc(CCCO)c(-c3cccc(C(F)(F)F)c3)c2)(C(=O)O)CC1 [Example 433, cis-4-Ethyl-1-{[6-(3-hydroxy-propyl)-3′-trifluoromethyl-biphenyl-3-carbonyl]-amino}-cyclohexanecarboxylic acid] |
| 100 to 1000 | C[C@H]1CC[C@](NC(=O)c2ccc(CCCO)c(-c3cccc(C(F)(F)F)c3)c2)(C(=O)O)CC1 [Example 434, cis-1-{[6-(3-Hydroxy-propyl)-3′-trifluoromethyl-biphenyl-3-carbonyl]-amino}-4-methyl-cyclohexanecarboxylic acid] |
| 100 to 1000 | CCc1ncc(C(=O)N[C@]2(C(=O)O)CC[C@H](C)CC2)cc1OCCc1cccc(Cl)c1 [Example 435, cis-1-({5-[2-(3-Chloro-phenyl)-ethoxy]-6-ethyl-pyridine-3-carbonyl}-amino)-4-methyl-cyclohexanecarboxylic acid] |
| 100 to 1000 | CCc1ncc(C(=O)N[C@]2(C(=O)O)CC[C@@H](C)CC2)cc1OCCc1cccc(Cl)c1 [Example 436, trans-1-({5-[2-(3-Chloro-phenyl)-ethoxy]-6-ethyl-pyridine-3-carbonyl}-amino)-4-methyl-cyclohexanecarboxylic acid] |
| < 100 | CCc1ncc(C(=O)N[C@]2(C(=O)O)CC[C@H](CC)CC2)cc1OCCc1cccc(Cl)c1 [Example 437, cis-1-({5-[2-(3-Chloro-phenyl)-ethoxy]-6-ethyl-pyridine-3-carbonyl}-amino)-4-ethyl-cyclohexanecarboxylic acid] |
| < 100 | CCc1ncc(C(=O)N[C@]2(C(=O)O)CC[C@@H](CC)CC2)cc1OCCc1cccc(Cl)c1 [Example 438, trans-1-({5-[2-(3-Chloro-phenyl)-ethoxy]-6-ethyl-pyridine-3-carbonyl}-amino)-4-ethyl-cyclohexanecarboxylic acid] |
| 100 to 1000 | CC[C@H]1CC[C@@](NC(=O)c2cc(OCCc3cccc(Cl)c3)c(C(C)=O)s2)(C(=O)O)CC1 [Example 439, trans-1-({5-Acetyl-4-[2-(3-chloro-phenyl)-ethoxy]-thiophene-2-carbonyl}-amino)-4-ethyl-cyclohexanecarboxylic acid] |
| 100 to 1000 | CCc1sc(C(=O)N[C@]2(C(=O)O)CC[C@@H](CC)CC2)cc1OCCc1cccc(Cl)c1 [Example 440, trans-1-({4-[2-(3-Chloro-phenyl)-ethoxy]-5-ethyl-thiophene-2-carbonyl}-amino)-4-ethyl-cyclohexanecarboxylic acid] |

— patent US9018383B2, “Acylamino-substituted cyclic carboxylic acid derivatives and their use as pharmaceuticals” (Sanofi, priority 2009, dated 2015)
